Laboratory results from ChEMBL document CHEMBL2311445, “Discovery of novel inhibitors of LEDGF/p75-IN protein-protein interactions” (Bioorg Med Chem, 2013).
pEC50, pIC50: −log10 of the molar value. Calls of active or inactive are those of the source. The rule behind the calls is not given here.

How the values were obtained:
[1] = Inhibition of human Flag-tagged LEDGF interaction to His6-tagged HIV1 integrase expressed in Escherichia coli BL21 (DE3) preincubated for 20 mins measured after 1 hr by AlphaScreen proximity luminescent assay
HCT-116 = experiment: Cytotoxicity against human HCT116 p53 +/+ and -/- cells after 72 hrs by MTT assay; assay type: cell-based; conditions: HCT-116, 72 h
[2] = system: Human immunodeficiency virus 1; experiment: Antiviral activity against HIV1 3B infected in human MT4 cells assessed as inhibition of virus-induced cytopathic effect by MTT assay; assay type: functional, organism-based; conditions: Human immunodeficiency virus 1, 3B
[3] = target: T1, Human immunodeficiency virus type 1 integrase (Human immunodeficiency virus 1, UniProt Q7ZJM1); experiment: Inhibition of wild type HIV1 integrase 3'-processing activity using 5'-end 32P-labeled linear oligonucleotide as substrate preincubated for 30 mins
T1 sequence (Q7ZJM1 whole entry): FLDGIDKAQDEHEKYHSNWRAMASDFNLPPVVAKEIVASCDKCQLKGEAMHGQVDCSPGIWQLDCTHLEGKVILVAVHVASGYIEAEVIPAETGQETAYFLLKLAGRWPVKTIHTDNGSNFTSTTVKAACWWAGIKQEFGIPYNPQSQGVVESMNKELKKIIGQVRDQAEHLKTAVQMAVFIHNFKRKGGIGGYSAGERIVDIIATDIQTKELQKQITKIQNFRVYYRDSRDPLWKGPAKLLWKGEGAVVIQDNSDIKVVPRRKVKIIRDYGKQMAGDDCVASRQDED

[4] = target: T1, Human immunodeficiency virus type 1 integrase; experiment: Inhibition of wild type HIV1 integrase strand transfer activity using 5'-end 32P-labeled linear oligonucleotide as substrate preincubated for 30 mins
[5] = Inhibition of human Flag-tagged LEDGF interaction to His6-tagged HIV1 integrase expressed in Escherichia coli BL21 (DE3) at 1000 uM preincubated for 20 mins measured after 1 hr by AlphaScreen proximity luminescent assay

COC(=O)c1ccc(/N=N/c2ccc([P+](c3ccccc3)(c3ccccc3)c3ccccc3)cc2)cc1
pIC50 [1]: 4.44
pEC50 (HCT-116): 6.40

O=C(N/N=C/c1c(O)ccc2ccccc12)c1cc[nH]n1
pIC50 [2]: < 4.85
pIC50 [3]: < 4.00
pIC50 [4]: < 4.00
pIC50 [1]: 5.15
pEC50 (HCT-116): 5.82

O=C(N/N=C/c1cc(Br)ccc1O)C1=NNC2CCCCC12 (stereo unspecified)
pIC50 [3]: 4.54
pIC50 [4]: 4.82
pIC50 [1]: 5.40
pEC50 (HCT-116): 5.30

COCCN1C(=O)/C(=C\NNC(=O)c2cc(Cl)ccc2O)C(=O)NC1=S
pIC50 [2]: < 4.40
pIC50 [3]: 4.05
pIC50 [4]: 4.10
pIC50 [1]: 4.89
pEC50 (HCT-116): 5.00

O=C(CP(=O)(c1ccccc1)c1ccccc1)N/N=C/c1cc(Br)cc(Br)c1O
pIC50 [3]: 4.00
pIC50 [4]: 4.00
pIC50 [1]: 4.30
pEC50 (HCT-116): 5.48

O=C(N/N=C/c1ccccc1O)c1cnccn1
pIC50 [2]: < 4.40
pIC50 [3]: < 4.00
pIC50 [4]: < 4.00
pIC50 [1]: 6.40
pEC50 (HCT-116): 5.05

COc1ccc(O)c(/C=N/NC(=O)c2sc3ccccc3c2O)c1
pIC50 [3]: < 4.00
pIC50 [4]: < 4.00
pIC50 [1]: 4.42
pEC50 (HCT-116): 5.10

c1ccc(/N=N/C(=N/Nc2ccccc2)c2ccccc2)cc1
pIC50 [2]: < 5.30
pIC50 [3]: < 4.00
pIC50 [4]: < 4.00
pIC50 [1]: 4.70
pEC50 (HCT-116): < 5.00

C/C(=N\NC(=O)C1CCCCC1)c1ccccc1O
pIC50 [2]: < 4.70
pIC50 [1]: 4.03
pEC50 (HCT-116): < 5.00

O=C(N/N=C/c1c(O)ccc2ccccc12)c1ccncc1
pIC50 [3]: < 4.00
pIC50 [4]: < 4.00
pIC50 [1]: 5.22

O=C1C(O)=Cc2ccccc2/C1=N\Nc1ccc(Cl)cc1
pIC50 [2]: < 4.40
pIC50 [3]: < 4.00
pIC50 [4]: 4.00
pIC50 [1]: 5.52

O=C(N/N=C/c1cccnc1)C1=NNC2CCCCC12 (stereo unspecified)
pIC50 [2]: < 4.70
pIC50 [1]: < 4.30
pEC50 (HCT-116): 5.30

Cc1nc2ccccc2c(=O)n1/N=C/c1ccccc1O
pIC50 [1]: < 4.30
pEC50 (HCT-116): 5.00

C=CC/N=c1/scc(-c2ccccc2Br)n1/N=C/c1ccccn1
pIC50 [2]: < 6.00
pIC50 [3]: < 4.00
pIC50 [4]: < 4.00
pIC50 [1]: 4.64

O=C(Nn1cnc2ccccc2c1=O)c1cnccn1
pIC50 [1]: 4.41

NNC(=O)c1cc(-c2ccc(Cl)cc2)n[nH]1
pIC50 [1]: < 4.30
pEC50 (HCT-116): 5.00

COc1ccccc1NS(=O)(=O)c1ccc(N/N=C(\C)c2ccccc2Br)c([N+](=O)[O-])c1
pIC50 [2]: 4.92
pIC50 [3]: < 4.00
pIC50 [4]: < 4.00
pIC50 [1]: 5.22
pEC50 (HCT-116): < 5.00

COc1c(Cl)cc(Cl)cc1/C=N/NC(=O)c1ccncc1
pIC50 [3]: < 4.00
pIC50 [4]: < 4.00
pIC50 [1]: < 4.30

FC(F)(F)c1ccccc1/C=N/N1CCN(Cc2ccccc2)CC1
pIC50 [3]: < 4.00
pIC50 [4]: < 4.00
pIC50 [1]: 4.46
pEC50 (HCT-116): < 5.00

CCN(CC)c1ccc(/C=C2\CCC(/C=N/N=C/c3c(C)[nH]c4ccccc34)=C2N2CCOCC2)cc1
pIC50 [1]: 4.40
pEC50 (HCT-116): < 5.00

Cc1[nH]n(-c2ccccc2)c(=O)c1/C=N/Nc1ccc([N+](=O)[O-])cc1
pIC50 [1]: 5.22
pEC50 (HCT-116): < 5.00

CC(Oc1ccccc1)C(=O)N/N=C/c1ccccc1O (stereo unspecified)
pIC50 [1]: 4.30
pEC50 (HCT-116): 5.19

COCC/N=c1/scc(-c2cccs2)n1/N=C/c1cc(Br)c(O)c(OC)c1
pIC50 [2]: < 4.82
pIC50 [3]: < 4.00
pIC50 [4]: < 4.00
pIC50 [1]: 4.85
pEC50 (HCT-116): < 5.00

CC/C(=N\NC(=O)c1ccc(F)cc1)c1cc(Cl)cc(Cl)c1O
pIC50 [1]: < 4.30
pEC50 (HCT-116): 5.60

CCN(CC)c1ccc(/C=C2\CCC(/C=N/N=C/c3cccnc3)=C2N2CCOCC2)cc1
pIC50 [2]: < 4.70
pIC50 [3]: < 4.00
pIC50 [4]: < 4.00
pIC50 [1]: 5.52
pEC50 (HCT-116): < 5.00

CCOc1cccc(/C=N/NC(=O)c2n[nH]c3c2CCC3)c1O
pIC50 [2]: < 5.40
pIC50 [3]: < 4.00
pIC50 [4]: < 4.00
pIC50 [1]: 5.70
pEC50 (HCT-116): 5.22

Cc1sc2ncnc(N/N=C/c3c(O)ccc4ccccc34)c2c1C
pIC50 [3]: 4.11
pIC50 [4]: 4.28
pIC50 [1]: 5.22
pEC50 (HCT-116): > 6.00

Cn1cccc1/C=N/N1CCN(Cc2ccccc2)CC1
pIC50 [3]: < 4.00
pIC50 [4]: < 4.00
pIC50 [1]: 4.49
pEC50 (HCT-116): < 5.00

Oc1ccc(/C=N/N2CCN(c3ccccc3)CC2)cc1O
pIC50 [3]: 4.16
pIC50 [4]: 4.51
pIC50 [1]: 4.80
pEC50 (HCT-116): < 5.00

CCNc1nc(NCC)nc(C(=O)Nc2ccccc2)n1
pIC50 [1]: 4.68

CCNc1nc(NCC)nc(C(=O)NN)n1
pIC50 [2]: < 4.70
pIC50 [3]: > 4.00
pIC50 [4]: > 4.00
pIC50 [1]: 5.22

COc1ccc(CN2CCCN(c3ccc(S(=O)(=O)Nc4ccccc4)cc3[N+](=O)[O-])CC2)cc1
pIC50 [2]: 4.62
pIC50 [1]: 4.47
pEC50 (HCT-116): < 5.00

Cc1nnc(NNC(=O)c2ccccc2)c2c1[nH]c1ccccc12
pIC50 [1]: < 4.30

COc1ccc(OC)c(/C=N/NC(=O)c2n[nH]c3c2CCC3)c1
pIC50 [2]: < 4.40
pIC50 [3]: < 4.00
pIC50 [4]: < 4.00
pIC50 [1]: < 4.30
pEC50 (HCT-116): < 5.00

O=C(N/N=C/c1ccc(Cl)cc1Cl)c1cnccn1
pIC50 [3]: < 4.00
pIC50 [4]: < 4.00
pIC50 [1]: < 4.30
pEC50 (HCT-116): < 5.00

COc1cc(Br)cc(/C=N/NC(=O)c2ccccn2)c1O
pIC50 [2]: < 4.66
pIC50 [3]: 4.77
pIC50 [4]: 4.89
pIC50 [1]: 5.89

O=C(N/N=C/c1c(O)ccc2ccccc12)c1n[nH]c2c1CCC2
pIC50 [2]: < 4.77
pIC50 [3]: < 4.00
pIC50 [4]: < 4.00
pIC50 [1]: 5.40
pEC50 (HCT-116): > 6.00

Cc1nnc(NN)c2c1[nH]c1ccccc12
pIC50 [2]: < 4.30
pIC50 [3]: < 4.00
pIC50 [4]: < 4.00
pIC50 [1]: 5.30

Cc1cc(C)nc(N/N=C/c2cccc(O)c2)n1
pIC50 [1]: < 4.30
pEC50 (HCT-116): 5.40

CN(C)c1ccc(/N=N/c2ccc(Cl)cc2)cc1
pIC50 [2]: < 4.00
pIC50 [3]: < 4.00
pIC50 [4]: < 4.00
pIC50 [1]: 5.70
pEC50 (HCT-116): < 5.00

O=C(N/N=C/c1cc(Br)ccc1O)c1cccnc1
pIC50 [2]: < 5.52
pIC50 [3]: < 4.00
pIC50 [4]: < 4.00
pIC50 [1]: 5.40

CCN(CC)c1ccc(/C=C2\CCC(/C=N/N3CCN(c4ccc(C)cc4)CC3)=C2N2CCOCC2)cc1
pIC50 [1]: 4.34
pEC50 (HCT-116): 5.48

CC(=O)c1ccc(/N=N/c2ccc(C[P+](c3ccccc3)(c3ccccc3)c3ccccc3)cc2)cc1
pIC50 [3]: < 4.00
pIC50 [4]: < 4.00
pIC50 [1]: 4.92
pEC50 (HCT-116): 6.30

Cc1nnc(Cl)c2c1[nH]c1ccccc12
pIC50 [1]: < 4.30

Cc1occc1C(=O)NN/C=C1/C(=O)N(c2ccccc2Cl)C(=O)c2ccccc21
pIC50 [3]: 4.05
pIC50 [4]: 4.12
pIC50 [1]: 5.10
pEC50 (HCT-116): 5.19

COc1ccccc1N1CCN(/N=C/c2ccc(Cl)c([N+](=O)[O-])c2)CC1
pIC50 [2]: < 4.00
pIC50 [3]: < 4.00
pIC50 [4]: < 4.00
pIC50 [1]: 4.68
pEC50 (HCT-116): < 5.00

C/C(=N\Nc1ccc(S(=O)(=O)Nc2ccccc2)cc1[N+](=O)[O-])c1cc(O)ccc1O
pIC50 [2]: < 4.55
pIC50 [3]: < 4.00
pIC50 [4]: < 4.00
pIC50 [1]: 4.89

O=C(N/N=C/c1ccc(Cl)cc1Cl)c1n[nH]c2c1CCC2
pIC50 [1]: < 4.30
pEC50 (HCT-116): > 6.00

NNC(=O)Cn1cnc(-c2ccc(F)cc2)c1
pIC50 [1]: < 4.30

CC/N=c1/scc(-c2cc(OC)ccc2OC)n1/N=C(\C)c1ccco1
pIC50 [2]: < 4.22
pIC50 [3]: < 4.00
pIC50 [4]: < 4.00
pIC50 [1]: 5.10
pEC50 (HCT-116): < 5.00

O=C(COc1ccc(Cl)cc1Cl)N/N=C/c1cc(Br)ccc1O
pIC50 [3]: < 4.00
pIC50 [4]: < 4.00
pIC50 [1]: 4.30
pEC50 (HCT-116): < 5.00

Oc1ccc(Br)cc1/C=N/Nc1cccc2cccnc12
pIC50 [3]: < 4.00
pIC50 [4]: < 4.00
pIC50 [1]: < 4.30

COc1cc(/C=N/Nc2ccc(S(=O)(=O)Nc3ccccc3C(=O)O)cc2[N+](=O)[O-])ccc1O
pIC50 [2]: < 5.00
pIC50 [3]: < 4.00
pIC50 [4]: < 4.00
pIC50 [1]: 4.60

CC/N=c1/scc(-c2ccc(Br)cc2)n1/N=C/c1ccc(O)c(O)c1O
pIC50 [2]: < 4.46
pIC50 [1]: > 4.60
pEC50 (HCT-116): < 5.00

O=C(N/N=C/c1ccc(O)cc1O)c1ccncc1
pIC50 [3]: < 4.00
pIC50 [4]: < 4.00
pIC50 [1]: 5.40
pEC50 (HCT-116): 5.40

CC(C)c1ccc(/C=N/N2CCN(Cc3ccccc3)CC2)cc1
pIC50 [1]: 4.30
pEC50 (HCT-116): < 5.00

NNC(=O)c1ccncc1
inhibition [5]: inactive

C/C(=N\N1CCN(Cc2ccccc2Cl)CC1)c1ccc([N+](=O)[O-])cc1
pIC50 [2]: < 4.00
pIC50 [3]: < 4.00
pIC50 [4]: < 4.00
pIC50 [1]: 4.72
pEC50 (HCT-116): < 5.00

O=[N+]([O-])c1ccccc1/C=N/N1CCN(Cc2ccccc2)CC1
pIC50 [1]: 4.62
pEC50 (HCT-116): > 5.00

Cc1ccc(N/N=C2\Sc3ccccc3C2=O)cc1
pIC50 [2]: < 4.00
pIC50 [3]: < 4.00
pIC50 [4]: < 4.00
pIC50 [1]: 5.22
pEC50 (HCT-116): 5.00
